Experiment: Maximum concentration of ingredient incorporated into the microemulsion
Format: physicochemical
Conditions: incorporated into the microemulsion formulation of Table 28

| Compound | Approximate Maximum Concentration |
| --- | --- |
| CCCCCC [Hexane] | 2.0 |
| C[C@]12C=CC(=O)C=C1CC[C@@H]1[C@@H]2C(=O)C[C@@]2(C)[C@H]1CC[C@]2(O)C(=O)CO [Prednisone, reference compound] | 0.5 |
| Cc1ccccc1 [Toluene] | 2.0 |
| CC(=O)Oc1c(C)c(C)c2c(c1C)CCC(C)(CCC[C@H](C)CCC[C@H](C)CCCC(C)C)O2 (stereo partly drawn) [Vitamin E, α-Tocopherol acetate, reference compound] | 1.0 |
| Xylene | 5.0 |
